Where a name gives a salt, the structure may show the parent alone.

From patent publication US7186743B2, “Substituted pyrazolyl compounds for the treatment of inflammation” (Pharmacia Corporation, priority 2001, dated 2007) come the findings set out here.

One data set addresses T1, IKK2 (Homo sapiens, UniProt O14920).
T1 construct: made in house; host or cells: insect cells (baculovirus, pFastBac; SF9)
T1 sequence (O14920 1-756): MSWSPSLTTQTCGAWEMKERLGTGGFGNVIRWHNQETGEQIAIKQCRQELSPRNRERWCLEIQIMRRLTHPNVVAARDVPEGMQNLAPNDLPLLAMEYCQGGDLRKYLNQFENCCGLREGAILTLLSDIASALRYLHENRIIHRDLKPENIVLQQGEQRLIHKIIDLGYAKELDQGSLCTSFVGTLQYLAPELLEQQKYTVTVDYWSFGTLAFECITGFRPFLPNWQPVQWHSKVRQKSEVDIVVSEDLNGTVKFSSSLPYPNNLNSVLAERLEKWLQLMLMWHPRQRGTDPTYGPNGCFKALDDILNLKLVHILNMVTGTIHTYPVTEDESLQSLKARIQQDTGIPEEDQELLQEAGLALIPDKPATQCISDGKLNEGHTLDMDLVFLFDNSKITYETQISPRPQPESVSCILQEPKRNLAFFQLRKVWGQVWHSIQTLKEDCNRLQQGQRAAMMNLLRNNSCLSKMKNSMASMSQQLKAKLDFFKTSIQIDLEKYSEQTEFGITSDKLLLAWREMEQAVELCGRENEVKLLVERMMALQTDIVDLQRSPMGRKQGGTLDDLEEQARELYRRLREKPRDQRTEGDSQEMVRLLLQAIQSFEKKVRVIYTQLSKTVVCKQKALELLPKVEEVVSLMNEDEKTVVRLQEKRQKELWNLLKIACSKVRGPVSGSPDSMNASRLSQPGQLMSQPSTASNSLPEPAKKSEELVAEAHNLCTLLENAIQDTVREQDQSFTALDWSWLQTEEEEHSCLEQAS
In words: IKKβ Resin Enzyme Assay (IKK2 resin). As to conditions: Table 18; read-out: IKK2 Resin IC50. Format: biochemical. In outline:
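Enzyme: human IKK2 with a C-terminal FLAG tag, baculovirus-expressed, purified as homodimer on anti-FLAG resin. It phosphorylates a biotinylated IκBα peptide with 1 μM ATP plus [γ-33P]ATP in 25 mM Hepes pH 7.6, Mg/Mn, for 30 min at 25° C. Incorporation is counted by scintillation after anion-exchange resin stop.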
By IC50 is commonly meant the concentration that inhibits the measured activity by half. Regarding `CCS(=O)(=O)c1ccc(-n2nc(C(N)=O)c3c2-c2cc(NC(=O)c4cccnc4Cl)ccc2CC3)cc1` [Example 396, 8-{[(2-chloropyridin-3-yl)carbonyl]amino}-1-[4-(ethylsulfonyl)phenyl]-4,5-dihydro-1H-benzo[g]indazole-3-carboxamide], the IC50 was not above 1 µM.
On to `CCS(=O)(=O)c1ccc(-n2nc(C(N)=O)c3c2-c2cc(NC(=O)c4cc(NC(=O)OC(C)(C)C)ccc4Cl)ccc2CC3)cc1` [Example 397, tert-butyl 3-[({3-(aminocarbonyl)-1-[4-(ethylsulfonyl)phenyl]-4,5-dihydro-1H-benzo[g]indazol-8-yl}amino)carbonyl]-4-chlorophenylcarbamate], for which the IC50 is not above 1 µM.
For `CCS(=O)(=O)c1ccc(-n2nc(C(N)=O)c3c2-c2cc(NC(=O)c4cc(N)ccc4Cl)ccc2CC3)cc1` [Example 398, 8-[(5-amino-2-chlorobenzoyl)amino]-1-[4-(ethylsulfonyl)phenyl]-4,5-dihydro-1H-benzo[g]indazole-3-carboxamide], the IC50 was not above 1 µM.
On the same count and under the same terms, then `CCCS(=O)(=O)c1ccc(-n2nc(C(N)=O)c3c2-c2cc(NC(=O)c4ccccc4Cl)ccc2CC3)cc1` [Example 400, 8-[(2-chlorobenzoyl)amino]-1-[4-(propylsulfonyl)phenyl]-4,5-dihydro-1H-benzo[g]indazole-3-carboxamide], with not above 1 µM; and `NCCCS(=O)(=O)c1ccc(-n2nc(C(N)=O)c3c2-c2cc(NC(=O)c4ccccc4Cl)ccc2CC3)cc1` [Example 404, 1-{4-[(3-aminopropyl)sulfonyl]phenyl}-8-[(2-chlorobenzoyl)amino]-4,5-dihydro-1H-benzo[g]indazole-3-carboxamide hydrochloride], with not above 1 µM.

Staying with this data set, now noted: Table 19; read-out: IKK2 Resin IC50.
In the case of `CSc1ccc(-n2nc(C(N)=O)c3c2-c2cc(NS(C)(=O)=O)ccc2CC3)cc1` [Example 411, 8-[(methylsulfonyl)amino]-1-[4-(methylthio)phenyl]-4,5-dihydro-1H-benzo[g]indazole-3-carboxamide], the IC50 is not above 1 µM.
In the case of `CSc1ccc(-n2nc(C(N)=O)c3c2-c2cc(NC(=O)c4ccncc4Cl)ccc2CC3)cc1` [Example 412, 8-[(3-chloroisonicotinoyl)amino]-1-[4-(methylthio)phenyl]-4,5-dihydro-1H-benzo[g]indazole-3-carboxamide hydrochloride], the IC50 is not above 1 µM.
On to `CSc1ccc(-n2nc(C(N)=O)c3c2-c2cc(NC(=O)c4cc5c(cc4Cl)OCO5)ccc2CC3)cc1` [Example 413, 8-{[(6-chloro-1,3-benzodioxol-5-yl)carbonyl]amino}-1-[4-(methylthio)phenyl]-4,5-dihydro-1H-benzo[g]indazole-3-carboxamide], for which the half-inhibitory concentration (IC50) is not above 1 µM.
In the case of `CSc1ccc(-n2nc(C(N)=O)c3c2-c2cc(NC(=O)c4cc(N)ccc4Cl)ccc2CC3)cc1` [Example 414, 8-[(5-amino-2-chlorobenzoyl)amino]-1-[4-(methylthio)phenyl]-4,5-dihydro-1H-benzo[g]indazole-3-carboxamide hydrochloride], the IC50 is not above 1 µM.

The data set is the same for the next values; noted with them: Table 21; read-out: IKK2 Resin IC50.
For the compound `C#CCN(CC#C)S(=O)(=O)c1ccc(-n2nc(C(N)=O)c3c2-c2cc(N)ccc2CC3)cc1` [Example 425, 8-amino-1-{4-[(diprop-2-ynylamino)sulfonyl]phenyl}-4,5-dihydro-1H-benzo[g]indazole-3-carboxamide], the IC50 is not above 1 µM.
On to `CN(C)S(=O)(=O)c1ccc(-n2nc(C(N)=O)c3c2-c2cc(NS(C)(=O)=O)ccc2CC3)cc1` [Example 426, 1-{4-[(dimethylamino)sulfonyl]phenyl}-8-[(methylsulfonyl)amino]-4,5-dihydro-1H-benzo[g]indazole-3-carboxamide], for which the IC50 was not above 1 µM.
Still for that read-out and setting: then `CN(C)S(=O)(=O)c1ccc(-n2nc(C(N)=O)c3c2-c2cc(NC(=O)c4ccccc4Cl)ccc2CC3)cc1` [Example 427, 8-[(2-chlorobenzoyl)amino]-1-{4-[(dimethylamino)sulfonyl]phenyl}-4,5-dihydro-1H-benzo[g]indazole-3-carboxamide], with not above 1 µM.

Staying with this data set, now noted: Table 22; read-out: IKK2 Resin IC50.
As for `CC1(C)Cc2c(C(N)=O)nn(-c3ccc4c(c3)OCO4)c2-c2cc(NC(=O)c3cccnc3Cl)ccc21` [Example 434, 1-(1,3-benzodioxol-5-yl)-8-{[(2-chloropyridin-3-yl)carbonyl]amino}-5,5-dimethyl-4,5-dihydro-1H-benzo[g]indazole-3-carboxamide], the concentration for half-maximal inhibition (IC50) was not above 1 µM.
Consider `CC1(C)Cc2c(C(N)=O)nn(-c3ccc4c(c3)OCO4)c2-c2cc(NC(=O)c3ccncc3Cl)ccc21` [Example 435, 1-(1,3-benzodioxol-5-yl)-8-[(3-chloroisonicotinoyl)amino]-5,5-dimethyl-4,5-dihydro-1H-benzo[g]indazole-3-carboxamide], for which the IC50 was not above 1 µM.

The data set is the same for the next values; noted with them: Table 23; read-out: IKK2 Resin IC50.
`CC(C)NCC(=O)Nc1ccc2c(c1)-c1c(c(C(N)=O)nn1-c1ccc3c(c1)OCO3)CC2` [Example 444, 1-(1,3-benzodioxol-5-yl)-8-[(N-isopropylglycyl)amino]-4,5-dihydro-1H-benzo[g]indazole-3-carboxamide]: the IC50 is not above 1 µM.
For `NC(=O)c1nn(-c2ccc3c(c2)OCO3)c2c1CCc1ccc(NC(=O)CNC3CCC3)cc1-2` [Example 445, 1-(1,3-benzodioxol-5-yl)-8-[(N-cyclobutylglycyl)amino]-4,5-dihydro-1H-benzo[g]indazole-3-carboxamidehydrochloride], the IC50 was not above 1 µM.
In the case of `CC(C)(C)NCC(=O)Nc1ccc2c(c1)-c1c(c(C(N)=O)nn1-c1ccc3c(c1)OCO3)CC2` [Example 450, 1-(1,3-benzodioxol-5-yl)-8-{[N-(tert-butyl)glycyl]amino}-4,5-dihydro-1H-benzo[g]indazole-3-carboxamide], the IC50 was not above 1 µM.
As to `CC(C)CNCC(=O)Nc1ccc2c(c1)-c1c(c(C(N)=O)nn1-c1ccc3c(c1)OCO3)CC2` [Example 451, 1-(1,3-benzodioxol-5-yl)-8-[(N-isobutylglycyl)amino]-4,5-dihydro-1H-benzo[g]indazole-3-carboxamide], the IC50 was not above 1 µM.
On to `NC(=O)c1nn(-c2ccc(F)cc2)c2c1CCc1ccc(NC(=O)CNC3CCC3)cc1-2` [Example 452, 8-[(N-cyclobutylglycyl)amino]-1-(4-fluorophenyl)-4,5-dihydro-1H-benzo[g]indazole-3-carboxamide], for which the half-maximal inhibitory concentration (IC50) is not above 1 µM.

Still in this data set, the particulars now being: read-out: IKK-2 resin IC50.
Turning to `C=CCNS(=O)(=O)c1ccc(-n2nc(C(N)=O)c3c2-c2cc(NC(=O)c4ccccc4Cl)ccc2CC3)cc1` [Example 421, 1-{4-[(allylamino)sulfonyl]phenyl}-8-[(2-chlorobenzoyl)amino]-4,5-dihydro-1H-benzo[g]indazole-3-carboxamide], the concentration for half-maximal inhibition (IC50) was not above 1 µM.
Same read-out and setting: then `CNS(=O)(=O)c1ccc(-n2nc(C(N)=O)c3c2-c2cc(NC(=O)c4ccccc4Cl)ccc2CC3)cc1` [Example 422, 8-[(2-chlorobenzoyl)amino]-1-{4-[(methylamino)sulfonyl]phenyl}-4,5-dihydro-1H-benzo[g]indazole-3-carboxamide], with not above 1 µM.

System in the next data set: not given
Test: not given
Conditions: not given
Broadly, the melting point is the temperature of the solid-liquid transition. As for `CN1CCN(c2ccc(Cl)c(C(=O)Nc3ccc4c(c3)-c3c(c(C(N)=O)nn3-c3ccc5c(c3)OCO5)CC4)n2)CC1` (as salt: salt) [Example 217, 1-(1,3-benzodioxol-5-yl)-8-({[3-chloro-6-(4-methylpiperazin-1-yl)pyridin-2-yl]carbonyl}amino)-4,5-dihydro-1H-benzo[g]indazole-3-carboxamide], the melting point is 264 to 266 °C (dec.).
In the case of `CN1CCN(c2ccc(Cl)c(C(=O)Nc3ccc4c(c3)-c3c(c(C(N)=O)nn3-c3ccc(F)cc3)CC4)n2)CC1` (as salt: salt) [Example 256, 8-({[3-chloro-6-(4-methylpiperazin-1-yl)pyridin-2-yl]carbonyl}amino)-1-(4-fluorophenyl)-4,5-dihydro-1H-benzo[g]indazole-3-carboxamide], the melting point was in the range of 218 to 220 °C.
In turn, `COc1ccc(CNc2ncccc2C(=O)Nc2ccc3c(c2)-c2c(c(C(N)=O)nn2-c2ccc4c(c2)OCO4)CC3)cc1` [Example 209, 1-(1,3-benzodioxol-5-yl)-8-[({2-[(4-methoxybenzyl)amino]pyridin-3-yl}carbonyl)amino]-4,5-dihydro-1H-benzo[g]indazole-3-carboxamide] gave a melting point of 181 to 182 °C.
On the same count and under the same terms, then `NC(=O)c1nn(-c2ccc3c(c2)OCO3)c2c1CCc1ccc(NC(=O)c3cccnc3N)cc1-2` [Example 210, 8-{[(2-aminopyridin-3-yl)carbonyl]amino}-1-(1,3-benzodioxol-5-yl)-4,5-dihydro-1H-benzo[g]indazole-3-carboxamide], with 265 to 267 °C.
